# Measured values from publication PMC10120551, “Novel Glu-based pyrazolo[3,4-d]pyrimidine analogues: design, synthesis and biological evaluation as DHFR and TS dual inhibitors” (Journal of Enzyme Inhibition and Medicinal Chemistry, 2023).
# Experiments:
# [1] = system: MCF-7 (Breast cancer); assay: MTT cytotoxicity assay; format: cell-based, human
# Method: (§1) The MTT assay was carried out according to the procedure cited earlier. Briefly, in a 96-well plate, either cancer or normal cells were seeded (10^6 cells/cm^2; 100 µL/well) and incubated for 12 h at 37 °C and CO2 (5%), then serial dilutions of compound 6i were added and incubated for 48 h using DMSO control (0.5% V/V). MTT (3-(4,5-dimethylthiazoyl)-2,5-diphenyl-tetrazolium bromide; Cat. No. M-5655) 5 mg/mL was then added. After 4 h incubation, the formed MTT formazan crystals were solubilised by 10% Triton X-100 plus 0.1 N HCl in anhydrous isopropanol. The absorbance was read using a Bioline plate reader at λ570–630 nm[25–29]. The selectivity of 6i towards HSF cells was also determined as follows[30]^,[31]: SI=IC50HSF cells/IC50of cancer cells
# [2] = system: PC-3 (Prostate cancer); assay: MTT cytotoxicity assay; format: cell-based, human
# Method: as §1
# [3] = system: OVCAR-3 (Ovarian Cancer); assay: MTT cytotoxicity assay; format: cell-based, human; conditions: for IC50: OVCAR-3, MTT, 48 h, mean ± SD from triplicates
# Method: as §1
# [4] = system: SF-295; assay: cells; conditions: Homo sapiens
# [5] = system: full panel of 59 cancer cells; assay: NCI one-dose screen (SRB), full panel; format: cell-based, human; conditions: Homo sapiens; mean over full panel of 59 cell lines; 10 µM single dose; read-out: MGI% (mean growth inhibition percentage)
# Method: The growth percentage (G%) and cell viability of the herein target compounds 6a–l, 7a,b, and 9a–c have been screened towards a full panel of 59 cancer cells at NCI’s Developmental Therapeutics Program (NCI-DTP, MD, USA)[21]. The submitted analogues were initially examined for preliminary in vitro anticancer activity using sulforhodamine B (SRB) assay at 10 µM as a single dose to evaluate cell growth and viability according to the procedure of Drug Evaluation Branch[22]^,[23].
# Different types of tumours – colon, NSCLC, leukaemia, CNS, renal, breast, ovarian, melanoma, and prostate cancers – were investigated as a full panel of 59 cell lines, and the attained results are cited in Figures S1–S17 (see Supplementary Material) where the value recorded is the growth relative to that of both the negative control and zero-time number of cells in which both growth inhibition (GI%; 0–100%) and lethality (L%; 0–100%) percentages can be identified. The growth inhibition means percentages (MGI%) for the examined target analogues towards the different treated 59 cancer cells were presented in Figure 2.
# The designed analogues were submitted to NCI-Chemotherapeutic Agents Repository (MD, USA) for screening on a panel of 59 cancer cell lines. All compounds were initially examined at 10 µM concentration (Single-Dose Screen), and then the most efficient analogue 6i was screened further at 0.01–100 µM (Five-Dose Screen). The screening procedures were performed according to NCI-Drug Evaluation Branch protocol using SRB protein assay, as described previously[21]^,[66]. The experimental procedures were detailed in the Supporting Information.
# [6] = system: MDA-MB-468; conditions: MDA-MB-468, Breast cancer; five-dose 0.01–100 µM
# [7] = system: MCF7; assay: cells; conditions: Homo sapiens
# [8] = system: SK-OV-3; assay: cells; conditions: Homo sapiens
# [9] = system: TK-10; conditions: TK-10, Renal cancer; five-dose 0.01–100 µM
# [10] = system: BT-549; assay: cells; conditions: Homo sapiens
# [11] = system: HS 578 T; assay: cells; conditions: Homo sapiens
# [12] = system: EKVX; assay: cells; conditions: Homo sapiens
# [13] = system: DU-145; assay: cells; conditions: Homo sapiens
# [14] = system: UACC-62; assay: cells; conditions: Homo sapiens
# [15] = system: M14; conditions: M14, Melanoma; five-dose 0.01–100 µM
# [16] = system: SW-620; assay: cells; conditions: Homo sapiens
# [17] = system: SK-MEL-2; conditions: SK-MEL-2, Melanoma; five-dose 0.01–100 µM
# [18] = system: T-47D; conditions: Breast cancer, five-dose 0.01–100 µM
# [19] = system: COLO 205; conditions: COLO 205, Colon cancer; five-dose 0.01–100 µM
# [20] = target: recombinant hDHFR (Homo sapiens, UniProt P00374); assay: DHFR inhibitory assay
# Method: DHFR inhibition assay kit (BioVision, K247–100) supplied with recombinant hDHFR was utilised in this assay. The assay was performed as instructed in assay kit[32]. Briefly, in a 96-well clear plate, serial dilutions of the test compound (2 μL) were loaded. […] An assay buffer (100 µl) was used as a Background Control. Then, 40 μL of diluted NADPH in assay buffer (40-fold dilution) was added and mixed well. At 25 °C in the dark, the plate was incubated for 15 min. […] Instantaneously, the absorbance was read at 340 nm for 10–20 min at 25 °C in kinetic mode by Robonik ELISA plate reader. Finally, the activity and relative inhibition percentages were measured using the equations indicated in the assay kit[33–35].
# [21] = system: OVCAR-3; conditions: OVCAR-3, Ovarian cancer; five-dose 0.01–100 µM
# [22] = system: RPMI-8226; assay: cells; conditions: Homo sapiens
# [23] = system: TK-10; assay: cells; conditions: Homo sapiens
# [24] = system: CCRF-CEM; assay: cells; conditions: Homo sapiens
# [25] = system: SN12C; conditions: Renal cancer, five-dose 0.01–100 µM
# Chain of recombinant hDHFR (P00374 whole entry): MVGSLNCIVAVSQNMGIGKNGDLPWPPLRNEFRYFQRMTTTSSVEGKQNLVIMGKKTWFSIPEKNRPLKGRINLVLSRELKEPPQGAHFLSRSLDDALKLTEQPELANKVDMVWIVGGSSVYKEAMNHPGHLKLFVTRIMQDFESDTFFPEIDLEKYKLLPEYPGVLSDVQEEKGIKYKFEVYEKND
smiles,measurement,setting,value
CCOC(=O)CC[C@H](NC(=O)c1ccc(NC(=O)Cn2cnc3c(c(C)nn3-c3ccc(Br)cc3)c2=O)cc1)C(=O)OCC [Compound 6i],IC50,"[1]; Homo sapiens, MCF7, MCF-7, MTT, 48 h, mean ± SD from triplicates",4.4 ± 0.26 µM
same,Selectivity index,[1]; IC50 HSF cells / IC50 MCF-7,11.02
same,IC50,"[2]; Homo sapiens, PC-3, MTT, 48 h, mean ± SD from triplicates",12.4 ± 0.62 µM
same,Selectivity index,[2]; IC50 HSF cells / IC50 PC-3,3.91
same,IC50,"[3]; Homo sapiens, OVCAR-3, 48 h",11.5 µM
same,Selectivity index,[3]; IC50 HSF cells / IC50 OVCAR-3,4.21
same,IC50,[3],11.5 ± 0.58 µM
same,GI50,[4]; SF-295,14.2 µM
same,CC50,"[4]; SF-295, read-out: LC50",71.6 µM
same,inhibition at 10 µM,[5],62%
same,TGI,[6],51.3 µM
same,GI50,[7]; MCF7,3.93 µM
same,CC50,"[7]; MCF7, read-out: LC50",59.4 µM
same,GI50,[8]; SK-OV-3,21.8 µM
same,CC50,"[8]; SK-OV-3, read-out: LC50",> 100 µM
same,TGI,[9],86.2 µM
same,GI50,[10]; BT-549,4.54 µM
same,CC50,"[10]; BT-549, read-out: LC50",> 100 µM
same,GI50,[11],12.7 µM
same,CC50,[11]; read-out: LC50,> 100 µM
same,GI50,[12],10.4 µM
same,CC50,[12]; read-out: LC50,71.7 µM
same,GI50,[13]; DU-145,7.47 µM
same,CC50,"[13]; DU-145, read-out: LC50",> 100 µM
same,GI50,[14]; UACC-62,13.3 µM
same,CC50,"[14]; UACC-62, read-out: LC50",77.8 µM
same,TGI,[15],>100 µM
same,GI50,[16]; SW-620,8.98 µM
same,CC50,"[16]; SW-620, read-out: LC50",> 100 µM
same,TGI,[17],89.1 µM
same,TGI,[18],>100 µM
same,TGI,[19],36.7 µM
same,IC50,[20],2.41 ± 0.13 µM
same,TGI,[21],61.3 µM
same,GI50,[22]; RPMI-8226,22.7 µM
same,CC50,"[22]; RPMI-8226, read-out: LC50",> 100 µM
same,GI50,[23]; TK-10,31.3 µM
same,CC50,"[23]; TK-10, read-out: LC50",> 100 µM
same,GI50,[24],14.5 µM
same,CC50,[24]; read-out: LC50,> 100 µM
same,TGI,[25],>100 µM
